Laboratory results taken from patent US4760136A, “Chartreusin derivatives and salts thereof” (Ishihara Sangyo Kaisha, Ltd., priority 1984, dated 1988).

Tests used:
ddY mice = test: Acute toxicity, intravenous (once), ddY mice; format: in vivo; details: formulated per Preparation Example
Source text: In Table 7 are shown acute toxicity values (LD50, mg/kg) in ddY mice in the case of intravenously administering (once) each of the compounds of this invention in the form of preparations shown in the Preparation Examples shown in Table 7.

P-388 leukemia cells = test: Antitumor activity: P-388 leukemia cells inoculated intraperitoneally, drug administered intravenously, BDF1 mice; format: in vivo; details: for T/C (%) of MST: dose c: 40 mg/kg × 3, i.v. on days 1, 5 and 9; for response vs control in vivo at 80 mg/kg: dose f: 80 mg/kg × 3, i.v. on days 1, 5 and 9
In short: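 Drug dosing was intravenous on the first, fifth and ninth days after intraperitoneal inoculation of P-388 leukemia cells (1×10^6 per mouse) into BDF1 mice. Vehicles were physiological saline alone, or saline with small amounts of sodium carboxymethyl cellulose or Tween-80.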

cancer = details: different sites; cited from earlier work
P-388 leukemia = details: i.p. inoculation, i.p. administration; cited from earlier work
B-16 melanoma = details: i.p. inoculation, i.p. administration; cited from earlier work
L-1210 leukemia = details: i.p. inoculation, i.p. administration; cited from earlier work
[1] = Mus musculus, P388, iv, BDF1 mice, P-388 i.p., read-out: T/C (%) of MST

SMILES	LD50 (ddY mice) [mg/kg]	response vs control in vivo at 80 mg/kg (P-388 leukemia cells; [1]) [%]	further results
COC1C(O)C(C)OC(OC2C(Oc3cccc4c(OC(=O)C5CCCCC5NC(=O)C(F)(F)F)c5c(=O)oc6ccc(C)c7c(=O)oc(c34)c5c67)OC(C)C3OC(c4ccccc4)OC32)C1O (single isomer, unassigned) [Compound No. 26, 6-O-(N-Trifluoroacetyl-2-Amino-Cyclohexanecarbonyl)-3',4'-O-Benzylidene-Chartreusin]	≥ 40		response vs control in vivo at 20 mg/kg (P-388 leukemia cells; Mus musculus, P388, iv, dose b: 20 mg/kg × 3, i.v. on days 1, 5 and 9, BDF1 mice, P-388 i.p., read-out: T/C (%) of MST): 195%; T/C (%) of MST (P-388 leukemia cells; BDF1 mice, P-388 i.p.): 220%
CO[C@H]1[C@@H](O)[C@@H](C)O[C@H](O[C@H]2[C@H](Oc3cccc4c(O)c5c(=O)oc6ccc(C)c7c(=O)oc(c34)c5c67)O[C@H](C)[C@H](O)[C@@H]2O)[C@@H]1O [chartreusin]			antitumorous activity when site of cancer inoculation and site of administration were different (cancer): not effective at all; antitumorous activity against P-388 leukemia (P-388 leukemia): effective; T/C (%) (P-388 leukemia cells; 50 mg/kg/day x 3, suspension in 0.2M Na2HPO4 / N,N-dimethylacetamide (4:1), comparison): 105%; antitumorous activity against B-16 melanoma (B-16 melanoma): effective; antitumorous activity against L-1210 leukemia (L-1210 leukemia): effective
COC1C(O)C(C)OC(OC2C(Oc3cccc4c(OC(=O)CCNC(=O)C(F)(F)F)c5c(=O)oc6ccc(C)c7c(=O)oc(c34)c5c67)OC(C)C3OC(c4ccccc4)OC32)C1O (stereo not drawn) [Compound No. 28, 6-O-(N-Trifluoroacetyl-β-Alanyl)-3',4'-O-Benzylidene-Chartreusin]	≥ 120	193	response vs control in vivo at 120 mg/kg (P-388 leukemia cells; Mus musculus, P388, iv, dose h: 120 mg/kg × 3, i.v. on days 1, 5 and 9, BDF1 mice, P-388 i.p., read-out: T/C (%) of MST): 227%
CCCC(=O)Oc1c2cccc(OC3OC(C)C4OC(c5ccccc5)OC4C3OC3OC(C)C(O)C(OC)C3O)c2c2oc(=O)c3c(C)ccc4oc(=O)c1c2c43 (stereo not shown) [compound 212, 6-O-(n-butyryl)-3',4'-O-benzylidene-chartreusin]	≥ 80	153	
COC1C(O)C(C)OC(OC2C(Oc3cccc4c(OC(=O)CN(C)C(=O)C(F)(F)F)c5c(=O)oc6ccc(C)c7c(=O)oc(c34)c5c67)OC(C)C3OC(c4ccccc4)OC32)C1O (stereo not shown) [compound 67]	≥ 60	188	
COC1C(O)C(C)OC(OC2C(Oc3cccc4c(OC(=O)CCNC(=O)C(F)(F)F)c5c(=O)oc6ccc(C)c7c(=O)oc(c34)c5c67)OC(C)C3OC(c4ccccc4)OC32)C1O (stereo not shown) [Compound No. 41]	≥ 100		T/C (%) of MST (P-388 leukemia cells; BDF1 mice, P-388 i.p.): 157%
C=CCCC(=O)Oc1c2cccc(O[C@@H]3O[C@H](C)[C@@H]4OC(c5ccccc5)O[C@@H]4[C@H]3O[C@H]3O[C@H](C)[C@H](O)[C@H](OC)[C@H]3O)c2c2oc(=O)c3c(C)ccc4oc(=O)c1c2c43 (stereo partly shown) [compound 213]	≥ 80	160	
